The text below walks through data of patent US20100209404A1, “ENHANCED METHOD FOR PRODUCING STEM-LIKE CELLS FROM SOMATIC CELLS” (UNIVERSITY OF DAYTON, priority 2009, published 2010).

One assay concerns skin fibroblast cells. As to conditions: thapsigargin 1 μg/ml in SR-containing medium; cited from earlier work.
Assay [1] has as its system fibroblast growth factor receptor 3 (FGFR3). As to conditions: thapsigargin 1 μg/ml in SR-containing medium; cited from earlier work.
Assay [2] deals with Mouse embryonic skin fibroblast (MEF) cells. In words: Conversion (reprogramming) of MEF cells into stem-like cells in defined medium. Type of assay: cell-based. On the procedure:
MEF medium: DMEM (Invitrogen 11965-092) supplemented with 10% FBS (16000-044), 100 U/mL penicillin streptomycin (15140-122). Defined medium (Modified/Supplemented SR medium): 400 ml DMEM/F12 (Invitrogen 11330-032), 5 ml non-Essential Amino Acids (Invitrogen 11140-050), 2.5 ml L-Glutamine (Invitrogen 25030-018), 0.1 mM β-mercaptoethanol (Sigma 7522, add 3.5 μl) and 100 ml Knockout Serum Replacer (Invitrogen 10828-028). 4 ng/mL bFGF (13256-029), 1000/ml unit of ESGRO™ (Lif) (Chemicon Cat #ESG1107). For each experiment, the necessary amount of defined medium was aliquoted, and then freshly prepared bFGF and Lif were added to the medium each time just in advance of use. (Lif was used as a component of such medium for mouse cell culture only.) FGF stock was made by adding 1 ml of DMEM/F12 to a vial of 10 μg of FGF, with the 10 μg of FGF dissolved in the DMEM/F12 and then aliquoted into five vials. Stock vials were then stored at −20° C. For each 30 ml of defined medium, 12 μl of the stock bFGF was added. Arachidonic acid (AA) stock was made by dissolving 10 mg of AA (from porcine liver A3555-10M Sigma) in 1 ml of DMSO. Dissolved AA was then aliquoted into five vials, and then store at −20° C. ([…]). Before use in defined medium, the 10 mg/ml AA was diluted with 1×PBS at a 1:5 ratio. […]

For a further assay, the system named is skin fibroblasts. As to conditions: SR reconstituted while eliminating individual supplements; cited from earlier work.
In the next assay the test system is ES-like cells. As to conditions: bFGF (4 ng/ml) and Lif added together to SR-containing medium; cited from earlier work.

Take `C/C=C(/C)C(=O)O[C@H]1C(C)=C2[C@H]([C@@H]1OC(=O)CCCCCCC)[C@@](C)(OC(C)=O)C[C@H](OC(=O)CCC)[C@@]1(O)[C@H]2OC(=O)[C@@]1(C)O` [Thapsigargin]: in the assay with skin fibroblast cells, the “conversion of skin fibroblast cells into stem cell-like cells” value is recorded as “prevented”. In assay [1], the “up-regulated expression of FGFR3” value is given as “prevented”.
Consider `CCCCC/C=C\C/C=C\C/C=C\C/C=C\CCCC(=O)O` [arachidonic acid, all-cis 5,8,11,14-eicosatetraenoic acid], for which the “conversion efficiency of somatic cells” value in assay [2] (arachidonic acid 2 mg/L added to defined medium, in isolation or together with pluronic F68) is listed as “increase the conversion efficiency”. Also, the “role of SR component in reprogramming somatic cells (e.g., fibroblasts) into stem-like cells” value with skin fibroblasts is “critical components”.
As for bFGF: basic fibroblast growth factor, the “efficient reprogramming of MEF cells to stem-like cells” value in assay [2] (freshly prepared, bFGF 4 ng/mL and Lif 1000/ml unit added to defined medium immediately prior to every conversion or passage) was “important to ensuring efficient reprogramming”. Besides, in the assay on ES-like cells, the “differentiation of the ES-like cells” value is “preventing differentiation” and the “division of the ES-like cells” value is “promote division”.
With “lipid-rich BSA: lipid-rich BSA (AlbuMax I, Invitrogen), component of serum replacement”, in the assay with skin fibroblasts, the “role of SR component in reprogramming somatic cells (e.g., fibroblasts) into stem-like cells” value was “critical components”.
